Results as given in patent US5556744A, “Methods and compositions for diagnosing and treating certain HIV infected patients” (The Trustees of the University of Pennsylvania, priority 1994, dated 1996).

Assays:
Parameters in all cases: species or system human
[1] = test system: sera samples (antibodies); assay: ELISA peptide-binding of maternal sera, MN strain peptides (Example 7); settings: for Correlation of peptide binding with non-transmission (in words): Example 7; for % Bound, Non-Transmitter / No. of Sera Samples Bound, Non-Transmitter / % Bound, Transmitter / No. of Sera Samples Bound, Transmitter: n = 5
Method: This example provides additional sera screens using peptides corresponding to sequences of the MN strain. The sera samples (5 transmitters and 5 non-transmitters) were obtained from the NIH and differ from those screened in the previous studies. Peptide binding was analyzed by ELISA as described in Example 3.

[2] = test system: maternal sera (antibodies); assay: ELISA peptide-binding of maternal sera (Example 6); settings: for Number of Non-Transmitters which bound to peptide / Percent of Non-Transmitters which bound to peptide: N = 12; for Number of Transmitters which bound to peptide / Percent of Transmitters which bound to peptide: N = 4
In short: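 HIV-1 envelope peptides averaging 16 amino acids, covering external and transmembrane glycoprotein, were probed by ELISA. Third-trimester maternal sera, classed as transmitter or non-transmitter by child diagnosis, were each run on at least 40 peptides. Values give percent of sera binding a peptide.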

[3] = test system: maternal HIV+ sera (antibodies); assay: RIA / ELISA binding of maternal HIV+ sera to gp120 and gp41 peptides (Example 3)
In short: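 Maternal sera, diluted 1:50 and 1:500, were bound overnight at 4°C to peptides immobilized at 10 μg/ml (pH 9.6 carbonate) and blocked with 1% BSA. Read-out was ¹²⁵I-labelled anti-human IgG counts or HRP-TMB OD450. Signal with peptide minus without was expressed relative to seronegative serum.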

[4] = Serum No. 1, Non-Transmission Group
[5] = Serum No. 2, Non-Transmission Group
[6] = Serum No. 3, Non-Transmission Group
[7] = Serum No. 4, Transmission Group
[8] = Serum No. 5, Transmission Group
[9] = Serum No. 6, Non-Transmission Group
[10] = Serum No. 7, Non-Transmission Group
[11] = Serum No. 8, Non-Transmission Group
[12] = Serum No. 9, Non-Transmission Group
[13] = Serum No. 10, Transmission Group
[14] = Serum No. 11, Non-Transmission Group
[15] = Serum No. 12, Non-Transmission Group
[16] = Serum No. 13, Transmission Group
[17] = Serum No. 14, Transmission Group
[18] = Serum No. 15, Transmission Group
[19] = Serum No. 16, Non-Transmission Group
[20] = Serum No. 17, Non-Transmission Group
[21] = Serum No. 18, Non-Transmission Group
[22] = Serum No. 19, Transmission Group
[23] = Serum No. 20, Non-Transmission Group

HMLQLTVWGIKQLQAR [MN-15]
Correlation of peptide binding with non-transmission (in words) [1]: selectively correlate with non-transmission
% Bound, Non-Transmitter [1]: 60%
No. of Sera Samples Bound, Non-Transmitter [1]: 3
% Bound, Transmitter [1]: 0%
No. of Sera Samples Bound, Transmitter [1]: 0

MN-10: gp41 peptide, amino acids 716-730, HIV strain MN, SEQ ID NO: 158
% Bound, Non-Transmitter [1]: 20%
No. of Sera Samples Bound, Non-Transmitter [1]: 1
% Bound, Transmitter [1]: 20%
No. of Sera Samples Bound, Transmitter [1]: 1

MN-16: gp41 peptide, amino acids 638-650, HIV strain MN, SEQ ID NO: 167
% Bound, Non-Transmitter [1]: 0%
No. of Sera Samples Bound, Non-Transmitter [1]: 0
% Bound, Transmitter [1]: 0%
No. of Sera Samples Bound, Transmitter [1]: 0

YIKIFIMIVGGLVG [MN-17]
Correlation of peptide binding with non-transmission (in words) [1]: selectively correlate with non-transmission
% Bound, Non-Transmitter [1]: 40%
No. of Sera Samples Bound, Non-Transmitter [1]: 2
% Bound, Transmitter [1]: 0%
No. of Sera Samples Bound, Transmitter [1]: 0

DTSGRLVHGFLAIIW [MN-8]
Correlation of peptide binding with non-transmission (in words) [1]: selectively correlate with non-transmission
% Bound, Non-Transmitter [1]: 80%
No. of Sera Samples Bound, Non-Transmitter [1]: 4
% Bound, Transmitter [1]: 20%
No. of Sera Samples Bound, Transmitter [1]: 1

WGIKQLQARILAVER [Peptide 120]
Number of Non-Transmitters which bound to peptide [2]: 0
Percent of Non-Transmitters which bound to peptide [2]: 0%
Number of Transmitters which bound to peptide [2]: 0
Percent of Transmitters which bound to peptide [2]: 0%
Binding of maternal HIV+ serum to peptide (sera/NHS ratio) [3, 4]: - (specific OD450 or cpm of sera sample binding to peptide divided by the specific OD450 or cpm of NHS sample binding to peptide, which value is less than 2)
Binding of maternal HIV+ serum to peptide (sera/NHS ratio) [3, 5]: - (specific OD450 or cpm of sera sample binding to peptide divided by the specific OD450 or cpm of NHS sample binding to peptide, which value is less than 2)
Binding of maternal HIV+ serum to peptide (sera/NHS ratio) [3, 6]: - (specific OD450 or cpm of sera sample binding to peptide divided by the specific OD450 or cpm of NHS sample binding to peptide, which value is less than 2)
Binding of maternal HIV+ serum to peptide (sera/NHS ratio) [3, 7]: - (specific OD450 or cpm of sera sample binding to peptide divided by the specific OD450 or cpm of NHS sample binding to peptide, which value is less than 2)
Binding of maternal HIV+ serum to peptide (sera/NHS ratio) [3, 8]: - (specific OD450 or cpm of sera sample binding to peptide divided by the specific OD450 or cpm of NHS sample binding to peptide, which value is less than 2)
Binding of maternal HIV+ serum to peptide (sera/NHS ratio) [3, 9]: - (specific OD450 or cpm of sera sample binding to peptide divided by the specific OD450 or cpm of NHS sample binding to peptide, which value is less than 2)
Binding of maternal HIV+ serum to peptide (sera/NHS ratio) [3, 10]: - (specific OD450 or cpm of sera sample binding to peptide divided by the specific OD450 or cpm of NHS sample binding to peptide, which value is less than 2)
Binding of maternal HIV+ serum to peptide (sera/NHS ratio) [3, 11]: - (specific OD450 or cpm of sera sample binding to peptide divided by the specific OD450 or cpm of NHS sample binding to peptide, which value is less than 2)
Binding of maternal HIV+ serum to peptide (sera/NHS ratio) [3, 12]: - (specific OD450 or cpm of sera sample binding to peptide divided by the specific OD450 or cpm of NHS sample binding to peptide, which value is less than 2)
Binding of maternal HIV+ serum to peptide (sera/NHS ratio) [3, 13]: - (specific OD450 or cpm of sera sample binding to peptide divided by the specific OD450 or cpm of NHS sample binding to peptide, which value is less than 2)
Binding of maternal HIV+ serum to peptide (sera/NHS ratio) [3, 14]: - (specific OD450 or cpm of sera sample binding to peptide divided by the specific OD450 or cpm of NHS sample binding to peptide, which value is less than 2)
Binding of maternal HIV+ serum to peptide (sera/NHS ratio) [3, 15]: - (specific OD450 or cpm of sera sample binding to peptide divided by the specific OD450 or cpm of NHS sample binding to peptide, which value is less than 2)
Binding of maternal HIV+ serum to peptide (sera/NHS ratio) [3, 16]: - (specific OD450 or cpm of sera sample binding to peptide divided by the specific OD450 or cpm of NHS sample binding to peptide, which value is less than 2)
Binding of maternal HIV+ serum to peptide (sera/NHS ratio) [3, 17]: - (specific OD450 or cpm of sera sample binding to peptide divided by the specific OD450 or cpm of NHS sample binding to peptide, which value is less than 2)
Binding of maternal HIV+ serum to peptide (sera/NHS ratio) [3, 18]: - (specific OD450 or cpm of sera sample binding to peptide divided by the specific OD450 or cpm of NHS sample binding to peptide, which value is less than 2)
Binding of maternal HIV+ serum to peptide (sera/NHS ratio) [3, 19]: - (specific OD450 or cpm of sera sample binding to peptide divided by the specific OD450 or cpm of NHS sample binding to peptide, which value is less than 2)
Binding of maternal HIV+ serum to peptide (sera/NHS ratio) [3, 20]: - (specific OD450 or cpm of sera sample binding to peptide divided by the specific OD450 or cpm of NHS sample binding to peptide, which value is less than 2)
Binding of maternal HIV+ serum to peptide (sera/NHS ratio) [3, 21]: - (specific OD450 or cpm of sera sample binding to peptide divided by the specific OD450 or cpm of NHS sample binding to peptide, which value is less than 2)
Binding of maternal HIV+ serum to peptide (sera/NHS ratio) [3, 22]: - (specific OD450 or cpm of sera sample binding to peptide divided by the specific OD450 or cpm of NHS sample binding to peptide, which value is less than 2)
Binding of maternal HIV+ serum to peptide (sera/NHS ratio) [3, 23]: - (specific OD450 or cpm of sera sample binding to peptide divided by the specific OD450 or cpm of NHS sample binding to peptide, which value is less than 2)

IGALFLGFGAAGST [Peptide 117]
Number of Non-Transmitters which bound to peptide [2]: 2
Percent of Non-Transmitters which bound to peptide [2]: 16.7%
Number of Transmitters which bound to peptide [2]: 0
Percent of Transmitters which bound to peptide [2]: 0%
Binding of maternal HIV+ serum to peptide (sera/NHS ratio) [3, 4]: - (specific OD450 or cpm of sera sample binding to peptide divided by the specific OD450 or cpm of NHS sample binding to peptide, which value is less than 2)
Binding of maternal HIV+ serum to peptide (sera/NHS ratio) [3, 5]: - (specific OD450 or cpm of sera sample binding to peptide divided by the specific OD450 or cpm of NHS sample binding to peptide, which value is less than 2)
Binding of maternal HIV+ serum to peptide (sera/NHS ratio) [3, 6]: - (specific OD450 or cpm of sera sample binding to peptide divided by the specific OD450 or cpm of NHS sample binding to peptide, which value is less than 2)
Binding of maternal HIV+ serum to peptide (sera/NHS ratio) [3, 7]: - (specific OD450 or cpm of sera sample binding to peptide divided by the specific OD450 or cpm of NHS sample binding to peptide, which value is less than 2)
Binding of maternal HIV+ serum to peptide (sera/NHS ratio) [3, 8]: - (specific OD450 or cpm of sera sample binding to peptide divided by the specific OD450 or cpm of NHS sample binding to peptide, which value is less than 2)
Binding of maternal HIV+ serum to peptide (sera/NHS ratio) [3, 9]: - (specific OD450 or cpm of sera sample binding to peptide divided by the specific OD450 or cpm of NHS sample binding to peptide, which value is less than 2)
Binding of maternal HIV+ serum to peptide (sera/NHS ratio) [3, 10]: - (specific OD450 or cpm of sera sample binding to peptide divided by the specific OD450 or cpm of NHS sample binding to peptide, which value is less than 2)
Binding of maternal HIV+ serum to peptide (sera/NHS ratio) [3, 11]: - (specific OD450 or cpm of sera sample binding to peptide divided by the specific OD450 or cpm of NHS sample binding to peptide, which value is less than 2)
Binding of maternal HIV+ serum to peptide (sera/NHS ratio) [3, 12]: - (specific OD450 or cpm of sera sample binding to peptide divided by the specific OD450 or cpm of NHS sample binding to peptide, which value is less than 2)
Binding of maternal HIV+ serum to peptide (sera/NHS ratio) [3, 13]: - (specific OD450 or cpm of sera sample binding to peptide divided by the specific OD450 or cpm of NHS sample binding to peptide, which value is less than 2)
Binding of maternal HIV+ serum to peptide (sera/NHS ratio) [3, 14]: - (specific OD450 or cpm of sera sample binding to peptide divided by the specific OD450 or cpm of NHS sample binding to peptide, which value is less than 2)
Binding of maternal HIV+ serum to peptide (sera/NHS ratio) [3, 15]: - (specific OD450 or cpm of sera sample binding to peptide divided by the specific OD450 or cpm of NHS sample binding to peptide, which value is less than 2)
Binding of maternal HIV+ serum to peptide (sera/NHS ratio) [3, 16]: - (specific OD450 or cpm of sera sample binding to peptide divided by the specific OD450 or cpm of NHS sample binding to peptide, which value is less than 2)
Binding of maternal HIV+ serum to peptide (sera/NHS ratio) [3, 17]: - (specific OD450 or cpm of sera sample binding to peptide divided by the specific OD450 or cpm of NHS sample binding to peptide, which value is less than 2)
Binding of maternal HIV+ serum to peptide (sera/NHS ratio) [3, 18]: - (specific OD450 or cpm of sera sample binding to peptide divided by the specific OD450 or cpm of NHS sample binding to peptide, which value is less than 2)
Binding of maternal HIV+ serum to peptide (sera/NHS ratio) [3, 19]: - (specific OD450 or cpm of sera sample binding to peptide divided by the specific OD450 or cpm of NHS sample binding to peptide, which value is less than 2)
Binding of maternal HIV+ serum to peptide (sera/NHS ratio) [3, 20]: - (specific OD450 or cpm of sera sample binding to peptide divided by the specific OD450 or cpm of NHS sample binding to peptide, which value is less than 2)
Binding of maternal HIV+ serum to peptide (sera/NHS ratio) [3, 21]: - (specific OD450 or cpm of sera sample binding to peptide divided by the specific OD450 or cpm of NHS sample binding to peptide, which value is less than 2)
Binding of maternal HIV+ serum to peptide (sera/NHS ratio) [3, 22]: - (specific OD450 or cpm of sera sample binding to peptide divided by the specific OD450 or cpm of NHS sample binding to peptide, which value is less than 2)
Binding of maternal HIV+ serum to peptide (sera/NHS ratio) [3, 23]: - (specific OD450 or cpm of sera sample binding to peptide divided by the specific OD450 or cpm of NHS sample binding to peptide, which value is less than 2)
